Assay results from US7098340B2, “Benzyl sulfonamide derivatives” (Warner Lambert Company LLC, priority 2003, dated 2006).

molecular target: T1, androgen receptor (Homo sapiens, UniProt P10275); experiment: AR Antagonist Cell Assay (MMTV-luciferase reporter, DHT-stimulated); type: cell-based; conditions: MDA-MB453-MMTV clone 54-19 cells; antagonism of 100 pM DHT, 17 hr, luciferase readout
T1 sequence (P10275 1-920 Q868H): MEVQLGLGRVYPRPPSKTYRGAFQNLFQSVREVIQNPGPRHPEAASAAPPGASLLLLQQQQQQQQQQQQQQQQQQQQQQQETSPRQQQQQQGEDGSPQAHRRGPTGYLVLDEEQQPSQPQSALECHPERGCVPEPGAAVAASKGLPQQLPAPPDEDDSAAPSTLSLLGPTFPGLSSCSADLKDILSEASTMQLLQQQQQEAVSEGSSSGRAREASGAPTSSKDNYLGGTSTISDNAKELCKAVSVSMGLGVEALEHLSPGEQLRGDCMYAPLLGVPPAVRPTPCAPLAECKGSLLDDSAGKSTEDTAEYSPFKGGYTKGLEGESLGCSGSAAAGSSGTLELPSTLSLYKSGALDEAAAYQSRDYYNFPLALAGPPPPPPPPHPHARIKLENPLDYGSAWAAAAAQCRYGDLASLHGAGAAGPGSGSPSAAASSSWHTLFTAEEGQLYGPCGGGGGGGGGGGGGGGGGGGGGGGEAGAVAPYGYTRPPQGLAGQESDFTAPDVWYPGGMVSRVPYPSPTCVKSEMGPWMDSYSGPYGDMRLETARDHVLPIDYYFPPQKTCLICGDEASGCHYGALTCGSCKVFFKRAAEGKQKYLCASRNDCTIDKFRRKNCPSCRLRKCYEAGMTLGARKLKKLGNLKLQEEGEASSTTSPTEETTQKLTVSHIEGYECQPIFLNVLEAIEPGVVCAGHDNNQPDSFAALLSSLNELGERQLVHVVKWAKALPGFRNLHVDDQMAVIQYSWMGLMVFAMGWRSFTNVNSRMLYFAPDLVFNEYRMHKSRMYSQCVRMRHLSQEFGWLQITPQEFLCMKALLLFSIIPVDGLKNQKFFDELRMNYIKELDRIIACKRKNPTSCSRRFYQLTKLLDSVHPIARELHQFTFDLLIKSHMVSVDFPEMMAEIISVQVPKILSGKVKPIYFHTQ
Procedure: The compounds ability to antagonize the effects of androgen on the androgen receptor were determined in the protocol described immediately below.
Experimental Procedure for AR Antagonist Cell Assay
Cell line: MDA-MB453-MMTV clone 54–19. This cell line is a stable transfected cell line with MDA-MB453 cell background (human breast tumor cell expressing high level of androgen receptor). A MMTV minimal promoter containing ARE was first cloned in front of a firefly luciferase reporter gene. Then the cascade was cloned into transfection vector pUV120puro. Electroporation method was used for transfecting MDA-MB-453 cell. Puromycin resistant stable cell line was selected.
Cell Culture Media and Reagents:
Culture medium: DMEM (high glucose, Gibco cat #: 11960-044), 10% FBS, and 1% L-glutamine
Plating medium: DMEM (phenol red free), 10% charcoal treated HyClone serum, 1% L-glutamine
Assay medium: DMEM (phenol red free), 1% charcoal treated HyClone serum, 1% L-glutamine, and 1% penicillin/streptomycin
3× luciferase buffer: 2% beta-mercaptoethanol, 0.6% ATP, 0.0135% luciferine in cell lysis buffer
• 1. Cells are maintained in culture medium, splitting cells when they reach 80–90% confluence • 2. To test compounds, 10,000 cells/well are plated to opaque 96 cell culture plate in 100 ul/well plating medium, culture for overnight at 37° C. in cell culture incubator • 3. Carefully remove plating medium, then add 80 ul/well of pre-warmed assay medium, add 10 ul/well testing compound (final concentration at 10 uM or 1 uM), incubate at 37° C. for 30 minutes • 4. Add 10 ul/well freshly prepared DHT (final concentration at 100 pM) to each well, incubate at 37° C. for 17 hr (overnight) • 5. Add 50 ul/well 3× luciferase buffer, incubate at room temperature for 5 minutes, then count on Luminometer.
The fold induction over background by 100 pM DHT in the absence of testing compounds is standardized as 100% and experimental result is expressed as percentage of inhibition by testing compounds.

Structure (SMILES)	IC50 [µM]
CCCCN(C)S(=O)(=O)c1ccc(Cc2ccc3oc(=O)cc(C(F)(F)F)c3c2)cc1 [Example 107, N-Butyl-N-methyl-4-(2-oxo-4-trifluoromethyl-2H-chromen-6-ylmethyl)benzenesulfonamide]	3.45
O=c1cc(C(F)(F)F)c2cc(Cc3ccc(S(=O)(=O)NCCOc4ccccc4)cc3)ccc2o1 [Example 181, 4-(2-Oxo-4-trifluoromethyl-2H-chromen-6-ylmethyl)-N-(2-phenoxyethyl)-benzenesulfonamide]	6.96
CCCN(CCO)S(=O)(=O)c1ccc(Cc2ccc3[nH]c(=O)cc(C(F)(F)F)c3c2)cc1 [Example 8, N-(2-Hydroxyethyl)-4-(2-oxo-4-trifluoromethyl-1,2-dihydroquinolin-6-ylmethyl)-N-propylbenzenesulfonamide]	3.25
COc1ccccc1CCNS(=O)(=O)c1ccc(Cc2ccc3oc(=O)cc(C(F)(F)F)c3c2)cc1 [Example 190, N-[2-(2-Methoxyphenyl)ethyl]-4-(2-oxo-4-trifluoromethyl-2H-chromen-6-ylmethyl)benzenesulfonamide]	5.41
CSc1n[nH]c(NS(=O)(=O)c2ccc(Cc3ccc4oc(=O)cc(C(F)(F)F)c4c3)cc2)c1C#N [Example 138, N-(4-Cyano-5-methylsulfanyl-2H-pyrazol-3-yl)-4-(2-oxo-4-trifluoromethyl-2H-chromen-6-ylmethyl)benzenesulfonamide]	1.9
O=c1cc(C(F)(F)F)c2cc(Cc3ccc(S(=O)(=O)N[C@H]4[C@@H]5CC[C@@H](C5)[C@H]4CO)cc3)ccc2[nH]1 (stereo in doubt) [Example 88, N-(3-Hydroxymethyl-bicyclo[2.2.1]hept-2-yl)-4-(2-oxo-4-trifluoromethyl-1,2-dihydroquinolin-6-ylmethyl)-benzenesulfonamide]	> 10
CCN(Cc1ccncc1)S(=O)(=O)c1ccc(Cc2ccc3oc(=O)cc(C(F)(F)F)c3c2)cc1 [Example 98, N-Ethyl-4-(2-oxo-4-trifluoromethyl-2H-chromen-6-ylmethyl)-N-pyridin-4-ylmethyl-benzenesulfonamide]	2.43
CCN(Cc1ccccc1)S(=O)(=O)c1ccc(Cc2ccc3oc(=O)cc(C(F)(F)F)c3c2)cc1 [Example 110, N-Benzyl-N-ethyl-4-(2-oxo-4-trifluoromethyl-2H-chromen-6-ylmethyl)benzenesulfonamide]	5.94
CN(CCc1ccccn1)S(=O)(=O)c1ccc(Cc2ccc3oc(=O)cc(C(F)(F)F)c3c2)cc1 [Example 111, N-Methyl-4-(2-oxo-4-trifluoromethyl-2H-chromen-6-ylmethyl)-N-(2-pyridin-2-ylethyl)benzenesulfonamide]	4.78
COc1ccc(N(Cc2ccccc2)S(=O)(=O)c2ccc(Cc3ccc4oc(=O)cc(C(F)(F)F)c4c3)cc2)cc1 [Example 154, N-Benzyl-N-(4-methoxyphenyl)-4-(2-oxo-4-trifluoromethyl-2H-chromen-6-ylmethyl)benzenesulfonamide]	6.06

The remaining lines, values ahead:

IC50 [µM]	Structure (SMILES)
3.16	O=c1cc(C(F)(F)F)c2cc(Cc3ccc(S(=O)(=O)Nc4ccccc4Cl)cc3)ccc2[nH]1 [Example 18, N-(2-Chlorophenyl)-4-(2-oxo-4-triftuoromethyl-1,2-dihydroquinolin-6-ylmethyl)-benzenesulfonamide]
2.05	Cc1cccc(NS(=O)(=O)c2ccc(Cc3ccc4oc(=O)cc(C(F)(F)F)c4c3)cc2)c1 [Example 115, 4-(2-Oxo-4-trifluoromethyl-2H-chromen-6-ylmethyl)-N-m-tolylbenzenesulfonamide]
8.02	CSc1n[nH]c(NS(=O)(=O)c2ccc(Cc3ccc4[nH]c(=O)cc(C(F)(F)F)c4c3)cc2)c1C#N [Example 32, N-(4-Cyano-5-methylsulfanyl-2H-pyrazol-3-yl)-4-(2-oxo-4-trifluoromethyl-1,2-dihydroquinolin-6-ylmethyl)-benzenesulfonamide]
> 10	O=c1cc(C(F)(F)F)c2cc(Cc3ccc(S(=O)(=O)Nc4cccc(-c5cnco5)c4)cc3)ccc2[nH]1 [Example 38, N-(3-Oxazol-5-ylphenyl)-4-(2-oxo-4-trifluoromethyl-1,2-dihydroquinolin-6-ylmethyl)benzenesulfonamide]
1.12	Cc1ccc(F)cc1NS(=O)(=O)c1ccc(Cc2ccc3[nH]c(=O)cc(C(F)(F)F)c3c2)cc1 [Example 25]
5.61	O=c1cc(C(F)(F)F)c2cc(Cc3ccc(S(=O)(=O)Nc4ccccc4Br)cc3)ccc2[nH]1 [Example 40, N-(2-Bromophenyl)-4-(2-oxo-4-trifluoromethyl-1,2-dihydroquinolin-6-ylmethyl)-benzenesulfonamide]
> 10	O=c1cc(C(F)(F)F)c2cc(Cc3ccc(S(=O)(=O)Nc4cccc(C(F)(F)F)c4)cc3)ccc2[nH]1 [Example 39, 4-(2-Oxo-4-trifluoromethyl-1,2-dihydroquinolin-6-ylmethyl)-N-(3-trifluoromethylphenyl)-benzenesulfonamide]
> 10	O=c1cc(C(F)(F)F)c2cc(Cc3ccc(S(=O)(=O)Nc4cccc(Cc5ccccc5)c4)cc3)ccc2[nH]1 [Example 43, N-(3-Benzylphenyl)-4-(2-oxo-4-trifluoromethyl-1,2-dihydroquinolin-6-ylmethyl)-benzenesulfonamide]
> 10	COc1ccc(OC)c(NS(=O)(=O)c2ccc(Cc3ccc4[nH]c(=O)cc(C(F)(F)F)c4c3)cc2)c1 [Example 33, N-(2,5-Dimethoxyphenyl)-4-(2-oxo-4-trifluoromethyl-1,2-dihydroquinolin-6-ylmethyl)-benzenesulfonamide]
> 10	O=c1cc(C(F)(F)F)c2cc(Cc3ccc(S(=O)(=O)N(CCO)Cc4ccccc4)cc3)ccc2[nH]1 [Example 9, N-Benzyl-N-(2-hydroxyethyl)-4-(2-oxo-4-trifluoromethyl-1,2-dihydroquinolin-6-ylmethyl)benzenesulfonamide]
> 10	O=c1cc(C(F)(F)F)c2cc(Cc3ccc(S(=O)(=O)Nc4ccc(-n5ccc(C(F)(F)F)n5)cc4)cc3)ccc2[nH]1 [Example 49, 4-(2-Oxo-4-trifluoromethyl-1,2-dihydroquinolin-6-ylmethyl)-N-[4-(3-trifluoromethylpyrazol-1-yl)phenyl]-benzenesulfonamide]
> 10	O=c1cc(C(F)(F)F)c2cc(Cc3ccc(S(=O)(=O)Nc4cccc5cccnc45)cc3)ccc2[nH]1 [Example 30, 4-(2-Oxo-4-trifluoromethyl-1,2-dihydroquinolin-6-ylmethyl)-N-quinolin-8-ylbenzenesulfonamide]
> 10	O=c1cc(C(F)(F)F)c2cc(Cc3ccc(S(=O)(=O)Nc4ccc5c(c4)CCC5)cc3)ccc2[nH]1 [Example 20, N-Indan-5-yl-4-(2-oxo-4-trifluoromethyl-1,2-dihydroquinolin-6-ylmethyl)-benzenesulfonamide]
> 10	COc1cc(CNS(=O)(=O)c2ccc(Cc3ccc4[nH]c(=O)cc(C(F)(F)F)c4c3)cc2)cc(OC)c1 [Example 80, N-(3,5-Dimethoxybenzyl)-4-(2-oxo-4-trifluoromethyl-1,2-dihydroquinolin-6-ylmethyl)-benzenesulfonamide]
> 10	CCOC(=O)CC(NS(=O)(=O)c1ccc(Cc2ccc3[nH]c(=O)cc(C(F)(F)F)c3c2)cc1)c1ccccc1 (stereo not shown) [Example 91, 3-[4-(2-Oxo-4-trifiuoromethyl-1,2-dihydroquinolin-6-ylmethyl)-benzenesulfonylamino]-3-phenylpropionic acid ethyl ester]
